Data from patent US5585376A, “1,5-benzodiazepine derivatives having CCK and/or gastrin antagonistic activity” (Glaxo Wellcome Inc., priority 1993, dated 1996).

Target: T1, human CCK-B receptor (Homo sapiens, UniProt P32239)
T1 construct: expressed in transfected cells; host or cells: HeLa cells (membranes), stably transfected
T1 sequence (P32239 1-447): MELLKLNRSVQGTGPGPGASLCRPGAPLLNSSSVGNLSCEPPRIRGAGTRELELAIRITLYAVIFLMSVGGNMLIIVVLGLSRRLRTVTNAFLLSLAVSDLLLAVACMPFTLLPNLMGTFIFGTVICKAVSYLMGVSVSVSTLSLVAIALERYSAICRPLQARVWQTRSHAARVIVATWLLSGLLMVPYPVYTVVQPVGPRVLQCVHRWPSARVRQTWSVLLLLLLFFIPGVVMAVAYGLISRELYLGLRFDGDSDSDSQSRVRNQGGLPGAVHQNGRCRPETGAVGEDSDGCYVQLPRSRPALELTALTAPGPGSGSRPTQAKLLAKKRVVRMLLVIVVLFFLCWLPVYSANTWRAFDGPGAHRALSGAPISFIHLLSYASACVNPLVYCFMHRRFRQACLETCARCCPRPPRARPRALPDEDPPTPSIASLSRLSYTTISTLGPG
Experiment: CCK-B receptor binding, transfected HeLa cell membranes, [125I]BH-sCCK-8
Conditions: HeLa cell membranes stably transfected with human CCK-B receptor; 30 pM [125I]BH-sCCK-8
Description: Alternatively the binding affinity of compounds of the invention for CCK-A and CCK-B receptors may be determined using HeLa cell membranes that are transfected with the human CCK-B receptor or, COS-M6 cell membranes that are transiently transfected with the human CCK-A receptor.
CCK-B receptor binding studies were carried out using HeLa cell membranes which had been stabily transfected with the human CCK-B receptor cloned from temporal cortex cDNA library.
The transfected HeLa cell membranes were incubated with 30 pM [^125 ]BH-sCCK-8 in the presence of various concentrations of the test compound (1 pM to 1 μM). All experiments were performed in an assay volume of 250 μl. Membranes were harvested onto GF/C glass fibre filter paper (Whatman, UK) by rapid filtration using a Cell Harvester (Brandel model M-24R) and washed three times with HEPES Wash buffer chilled to 4° C. The radioactivity trapped on individual filter discs was counted over 60 seconds using a gamma counter (Mini Gamma counter, LKB, Wallac, Finland) at a counting efficiency of 77%. A control experiment was also carded out in the absence of a test compound.
Analysis of the data was performed by computer-assisted non-linear regression (ALLFIT programmes DeLean et al., 1978;). IC50 values for the test compounds were convened to Ki values using the Cheng & Prussof equation (Ki =IC50 /(1+[L]/KD)) (Cheng and Prussof, 1973).

| Structure (SMILES) | Ki [nM] |
| --- | --- |
| O=C(Nc1cccc(-c2nn[nH]n2)c1)NC1C(=O)N(CC(=O)N2CCCC2)c2ccccc2N(c2ccccc2)C1=O (stereo not drawn) [Example 14] | 3.16 |
| O=C(Nc1ccccc1)NC1C(=O)N(CC(=O)N2CCCC2)c2ccccc2N(C2CCCCC2)C1=O (stereo not drawn) [Example 10] | 3.98 |
| O=C(O)Cc1cccc(NC(=O)NC2C(=O)N(CC(=O)N3CCCC3)c3ccccc3N(c3ccccc3F)C2=O)c1 (stereo not drawn) [Example 3, (3-{3-[1-(2-Fluoro-phenyl)-2,4-dioxo-5-(2-oxo-2-pyrrolidin-1-yl-ethyl)-2,3,4,5-tetrahydro-1H-benzo[b][1,4]diazepin-3-yl]-ureido}-phenyl)-acetic acid] | 3.98 |
| O=C(Nc1cccc([N+](=O)[O-])c1)NC1C(=O)N(CC(=O)N2CCCC2)c2ccccc2N(C2CCCCC2)C1=O (stereo not drawn) [Example 8] | 2.51 |
| O=C(Nc1cccc(C(=O)O)c1)NC1C(=O)N(CC(=O)N2CCCC2)c2ccccc2N(C2CCCCC2)C1=O (stereo not drawn) [Example 2, 3-{3-[1-Cyclohexyl-2,4-dioxo-5-(2-oxo-2-pyrrolidin-1-yl-ethyl)-2,3,4,5-tetrahydro-1H-benzo[b][1.4]diazepin-3-yl]-ureido}-benzoic acid] | 2 |
| CC1(C)CCCN(C(=O)CN2C(=O)C(NC(=O)Nc3ccc(F)cc3)C(=O)N(c3ccccc3F)c3ccccc32)C1 (stereo not drawn) [Example 20] | 2 |
| Cc1cccc(NC(=O)NC2C(=O)N(CC(=O)N3CCCC3)c3ccccc3N(c3ccccc3)C2=O)c1 (stereo not drawn) [Example 15] | 1.58 |
| CN(C)c1cccc(NC(=O)NC2C(=O)N(CC(=O)N3CCCC3)c3ccccc3N(C3CCCCC3)C2=O)c1 (stereo not drawn) [Example 12] | 1 |
| O=C(Nc1cccc(F)c1)NC1C(=O)N(CC(=O)N2CCCC2)c2ccccc2N(C2CCCCC2)C1=O (stereo not drawn) [Example 7] | 5.01 |
| O=C(Nc1ccc(F)cc1)NC1C(=O)N(CC(=O)N2CCCC2)c2ccccc2N(C2CCCCC2)C1=O (stereo not drawn) [Example 1, 1-[1-Cyclohexyl-2,4-dioxo-5-(2-oxo-2-pyrrolidin-1-yl-ethyl)-2,3,4,5-tetrahydro-1H-benzo[b][1.4]diazepin-3-yl]-3-(4-fluoro-phenyl)urea] | 3.16 |
| CC1(C)CCCN(C(=O)CN2C(=O)C(NC(=O)Nc3cccc(C(=O)O)c3)C(=O)N(c3ccccc3F)c3ccccc32)C1 (stereo not drawn) [Example 4, 3-{3-[1-[2-(3,3-Dimethyl-piperidin-1-yl)-2-oxo-ethyl]-5-(2-fluoro-phenyl)-2,4-dioxo-2,3,4,5-tetrahydro-1H-benzo[b][1,4]diazepin-3-yl]-ureido}-benzoic acid] | 1.58 |
| O=C(Nc1ccc(F)cc1)NC1C(=O)N(CC(=O)N2CCCC2)c2ccccc2N(C2CCCCC2)C1=O (single isomer, unassigned) [1 (isomer 2), 1-[1-Cyclohexyl-2,4-dioxo-5-(2-oxo-2-pyrrolidin-1-yl-ethyl)-2,3,4,5-tetrahydro-1H-benzo[b][1.4]diazepin-3-yl]-3-(4-fluoro-phenyl)urea] | 7.94 |
| O=C(Nc1ccc(F)cc1)NC1C(=O)N(CC(=O)N2CCCC2)c2ccccc2N(C2CCCCC2)C1=O (single isomer, unassigned) [Example 1 (isomer 1), 1-[1-Cyclohexyl-2,4-dioxo-5-(2-oxo-2-pyrrolidin-1-yl-ethyl)-2,3,4,5-tetrahydro-1H-benzo[b][1.4]diazepin-3-yl]-3-(4-fluoro-phenyl)urea] | 3.16 |

System: gastric acid secretion
Experiment: gastric acid secretion in the gastrin fistula rat
Format: in vivo
Conditions: 0.3 and 1 mg/kg iv
Source text: (§1) The compounds of the invention are essential non-toxic a theraapeutically active doses.

| Structure (SMILES) | gastric acid secretion |
| --- | --- |
| O=C(Nc1ccc(F)cc1)NC1C(=O)N(CC(=O)N2CCCC2)c2ccccc2N(C2CCCCC2)C1=O (single isomer, unassigned) [Example 1 (isomer 1), 1-[1-Cyclohexyl-2,4-dioxo-5-(2-oxo-2-pyrrolidin-1-yl-ethyl)-2,3,4,5-tetrahydro-1H-benzo[b][1.4]diazepin-3-yl]-3-(4-fluoro-phenyl)urea] | significally inhibited |

System: not listed separately
Experiment: untoward effects in the gastrin fistula rat
Format: in vivo
Conditions: 0.3 and 1 mg/kg iv
Source text: as §1

| Structure (SMILES) | untoward effects |
| --- | --- |
| O=C(Nc1ccc(F)cc1)NC1C(=O)N(CC(=O)N2CCCC2)c2ccccc2N(C2CCCCC2)C1=O (single isomer, unassigned) [Example 1 (isomer 1), 1-[1-Cyclohexyl-2,4-dioxo-5-(2-oxo-2-pyrrolidin-1-yl-ethyl)-2,3,4,5-tetrahydro-1H-benzo[b][1.4]diazepin-3-yl]-3-(4-fluoro-phenyl)urea] | no untoward effects were observed |
